Where two headings read alike, the source gives them in different places.
System: murine contact hypersensitivity response
Test: Mouse Ear Swelling Test (MEST), DNFB contact hypersensitivity
Format: in vivo, Swiss albino mice
Settings: ear thickness 24 hours after challenge; for ED30 / ED40: Mus musculus, 24 h; for ED30: read-out: EC30 (ED30, dose for 30% inhibition of ear swelling); for ED40: read-out: EC40 (ED40, dose for 40% inhibition of ear swelling)
From the text: The in vitro cell adhesion assay was used to measure the effect of a test compound on adhesion of human T cell line (Jurkat J6) on surfaces coated with VCAM-1. The MEST assesses the ability of the experimental compounds to inhibit the delayed-type hypersensitivity response of sensitized mice against a potent allergen, 1,4-Dinitrofluoro benzene. These two assays are appropriate for screening compounds for two different activities. The cell adhesion assay determines the effect of compounds on the interaction of VLA4 molecules expressed on the surface of Jurkat cells with its counter-receptor, VCAM-1, immobilized on microtitre plate surface. Conversely, the MEST determines the potency of compounds to inhibit the murine contact hypersensitivity response induced by exposing mice to the potent allergen 1,4-Dinitrofluoro benzene. The Chisolm et al method was used in this respect (Chisolm et al, Eur. J. Immunology 1993;23:682).
We tested the efficacy of compounds synthesized in this invention to inhibit the act hypersensitivity in Swiss mice as follows:
20 to 25 gm female Swiss albino mice (animals procured from National Institute of Immunology, New Delhi, India and maintained in our Experimental Animal Facility) were anesthetized with anesthetic ether (Sisco Research Laboratories Ltd., India). A 2 cm^2 patch of dorsal skin was shaved using a hair clipper. The exposed skin was then dermabraded using No. 100 sandpaper gently. 25 μL freshly prepared 0.5% 1,4-Dinitrofluoro benzene in 4:1 (v/v) acetone:olive oil solution was then topically applied onto the dermabraded skin to encourage a mild inflammation reaction. Twenty-four hours after the initial sensitization, the mice were again sensitized with 25 μL freshly prepared 0.5% 1,4-Dinitrofluor benzene (DNFB) in 4:1 (v/v) acetone:olive oil solution on the same dermabraded site as before. The second sensitization was performed while restraining the non-anesthetized, conscious mouse.
2. Administration of Compound
On day 5, compounds were dissolved in an aqueous solvent (pyrogen-free water, alkaline water, or ethanol) and further diluted in pyrogen-free water to prepare appropriate doses. Solutions were administered by intravenous, subcutaneous or oral route.
3. Challenge and Measurement of Ear Thickness
Two hours following administration of the compounds, the animals were physically restrained and painted with 25 μL of freshly prepared 0.5% DNFB in 4:1 (v/v) acetone:olive oil solution on the right ear. The thickness of the right ear was measured using a Series 300 Odimeter (Dyer Gauge Inc, USA) at the time of challenge (0 hr), 4 hours and 24 hours after challenge while physically restraining the non-anesthetized mice. In a separate experiment, it was ascertained that 4:1 (v/v) acetone:olive oil vehicle has no effect on ear thickness.
4. Determination of Effective Concentration of the Compounds
Inhibition of the ear swelling was judged by comparison of treated groups with their negative control groups. Percent inhibition was calculated as: [formula]
STEST =Mean ear thickness in test group at 24 hours after challenge
STEST-zero =Mean ear thickness in test group at zero hours after challenge
SNC =Mean ear thickness in negative control group at 24 hours after challenge
SNC-zero =Mean ear thickness in negative control group at zero hours after challenge
The percentage inhibition of swelling obtained by the above calculation was plotted against log dose using the Graph Pad Prizm software and, from this plot, the log dose corresponding to 30% inhibition (log ED30) and 40% (log ED40) inhibition was determined.
Aqueous solutions of appropriate doses (1 μg/kg to 100 mg/kg) were administered by intravenous route 2 hrs before challenge and their effect on ear thickness was measured. Concentrations inhibiting ear swelling by 30% and 40% were determined and expressed as amount (ng, μg or mg) per Kg body weight.

[1] = I.V., amount per Kg body weight
[2] = S.C., amount per Kg body weight

CCCCCCCCCCCCO[C@@H]1[C@H]2OC(C)(C)O[C@H]2O[C@@H]1CNC(=O)Nc1ccc(CC(=O)O)cc1 [Compound 53, 1,2-O-isopropylidene-3-O-dodecyl-5-deoxy-5-N-{[4-(2-hydroxy-2-oxoethyl)phenyl]aminocarbonylamino}-α,D-xylofuranose]
ED30 [1]: 0.01 mg/kg | ED40 [1]: 0.07 mg/kg | ED30 (Oral): 0.001 mg/kg | ED30 [2]: 0.0005 mg/kg | ED40 [2]: 0.01 mg/kg

CCCCCCCCCCCCO[C@H]1[C@H]2OC(C)(C)O[C@H]2O[C@@H]1CNC(=O)Nc1ccc(CC(=O)O)cc1 [Compound 76, 1,2-O-isopropylidene-3-O-dodecyl-5-deoxy-5-N-{[4-(2-hydroxy-2-oxoethyl)phenyl]aminocarbonylamino}-α,D-ribofuranose]
ED30 (Oral): 0.00029 mg/kg | ED40 (Oral): 0.0813 mg/kg

CC(C)C[C@H](NC(=O)[C@@]12O[C@H]3COC(C)(C)O[C@H]3[C@@H]1OC(C)(C)O2)C(=O)N[C@@H](CC(=O)O)C(=O)N[C@H](C(=O)N1CCC[C@H]1C(=O)O)C(C)C [Compound 122, 2,3; 4,6-Di-O-isopropylidene-1-carbonyl-L-Leucyl-α,L-Aspartyl-L-Valyl-LProline-α,L-xylo-2-hexulofuranosonic acid]
EC30 (ED30, dose for 30% inhibition of ear swelling) [1]: 8 mg/kg | ED30 [1]: 12 mg/kg
